These results are taken from ChEMBL document CHEMBL6087456 (J Med Chem, 2025).

The source made the active and inactive calls. The calls are words filed in the database; no cut-off is given here.

Series [1] deals with Dihydroorotate dehydrogenase (quinone), mitochondrial (Homo sapiens, UniProt Q02127). Nature of the series: Inhibition of C-terminal His6-tagged recombinant human DHODH (29 to 395 residues) N-terminally truncated soluble domain extracted from Escherichia coli phage resistant BL21-DE3 using CoQD/DHA/DCIP as substrates.
Chain of Dihydroorotate dehydrogenase (quinone), mitochondrial (Q02127 whole entry, the tested form may be a part): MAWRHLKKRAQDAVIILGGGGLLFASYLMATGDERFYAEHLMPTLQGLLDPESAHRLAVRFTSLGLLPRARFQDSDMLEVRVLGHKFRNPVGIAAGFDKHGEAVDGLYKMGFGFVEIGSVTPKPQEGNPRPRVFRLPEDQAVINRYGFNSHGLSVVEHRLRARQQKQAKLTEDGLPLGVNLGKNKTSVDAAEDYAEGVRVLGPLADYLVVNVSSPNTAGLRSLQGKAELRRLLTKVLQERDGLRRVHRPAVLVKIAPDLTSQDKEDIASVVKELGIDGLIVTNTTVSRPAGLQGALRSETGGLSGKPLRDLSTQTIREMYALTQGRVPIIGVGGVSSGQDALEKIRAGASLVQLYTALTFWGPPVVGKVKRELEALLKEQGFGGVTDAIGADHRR
A short description of series [2]: Cytotoxicity against human HepG2 cells by Cell Titer Glo assay. Format: toxicity, cell-based. A general note: In ATP-based viability assays light output follows the ATP content of the culture.
Series [3] deals with Plasmodium falciparum. In words: Antiparasitic activity against Plasmodium falciparum 3D7 assessed as lag time before killing at 10 times EC50 pretreated for 120 hrs followed by compound removal and replacement of media without compound measured after 28 days by cell killing assay. The class given is functional.
For series [4], the system named is Plasmodium falciparum. Nature of the series: Antiparasitic activity against Plasmodium falciparum 3D7 assessed as parasitic reduction ratio at 10 times EC50 pretreated for 120 hrs followed by compound removal and replacement of media without compound measured after 28 days by cell killing assay. Format: functional.
The nature of series [5]: Protein binding in human hepatocytes. As to conditions: read-out: PB (converted). The class given is ADME, cell-based, Hepatocyte.
The nature of series [6]: Drug excretion in Sprague-Dawley rat urine at 1 mg/kg, iv. The class given is ADME, organism-based. As to conditions: read-out: Drug excretion.
Series [7] can be described thus: Permeability across apical to basal side in human Caco-2 cells. Format: ADME, cell-based.
In a further series the target is T1, Cytochrome P450 1A2 (Homo sapiens, UniProt P05177).
T1 sequence (P05177 whole entry): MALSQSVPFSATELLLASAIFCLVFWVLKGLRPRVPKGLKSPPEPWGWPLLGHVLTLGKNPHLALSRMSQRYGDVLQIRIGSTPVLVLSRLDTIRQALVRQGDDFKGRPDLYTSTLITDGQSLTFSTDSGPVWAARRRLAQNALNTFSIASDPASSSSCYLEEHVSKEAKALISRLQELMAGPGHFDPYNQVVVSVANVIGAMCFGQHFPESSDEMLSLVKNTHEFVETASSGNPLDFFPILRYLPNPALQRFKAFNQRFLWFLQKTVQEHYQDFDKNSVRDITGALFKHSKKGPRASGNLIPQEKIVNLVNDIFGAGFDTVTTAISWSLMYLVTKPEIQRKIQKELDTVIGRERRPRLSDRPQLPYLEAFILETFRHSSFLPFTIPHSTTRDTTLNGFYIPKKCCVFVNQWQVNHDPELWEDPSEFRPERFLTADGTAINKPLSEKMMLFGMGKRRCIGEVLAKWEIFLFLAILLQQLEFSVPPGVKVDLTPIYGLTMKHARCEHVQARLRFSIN
In words: Inhibition of CYP1A2 in human liver microsomes. Format: ADME, Microsome. (In general: Liver microsomes are vesicles of endoplasmic reticulum, rich in cytochrome P450 enzymes.)

A further series has as its target Cytochrome P450 2D6 (Homo sapiens, UniProt P10635). In words: Inhibition of CYP2D6 in human liver microsomes. The class given is ADME, Microsome.
A further series addresses T2, Cytochrome P450 2C8 (Homo sapiens, UniProt P10632).
T2 sequence (P10632 whole entry): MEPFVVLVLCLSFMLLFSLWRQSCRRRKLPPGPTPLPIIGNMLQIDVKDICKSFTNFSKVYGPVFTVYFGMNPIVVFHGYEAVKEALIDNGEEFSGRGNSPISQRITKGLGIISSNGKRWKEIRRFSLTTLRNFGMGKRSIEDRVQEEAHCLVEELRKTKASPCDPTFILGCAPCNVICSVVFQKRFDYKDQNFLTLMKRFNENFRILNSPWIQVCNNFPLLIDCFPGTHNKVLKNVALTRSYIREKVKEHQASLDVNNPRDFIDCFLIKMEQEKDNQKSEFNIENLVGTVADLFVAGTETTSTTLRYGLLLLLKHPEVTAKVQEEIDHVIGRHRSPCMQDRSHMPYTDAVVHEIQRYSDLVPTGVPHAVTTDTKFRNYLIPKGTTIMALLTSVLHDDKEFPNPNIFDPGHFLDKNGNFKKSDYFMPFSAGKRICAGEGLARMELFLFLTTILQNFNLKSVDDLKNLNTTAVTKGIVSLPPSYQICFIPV
In words: Time-dependent inhibition of CYP2C8 in human liver microsomes. The class given is ADME, Microsome.

A further series addresses Cytochrome P450 2C19 (Homo sapiens, UniProt P33261). Nature of the series: Time-dependent inhibition of CYP2C19 in human liver microsomes. Format: ADME, Microsome.
The target in a further series is Cytochrome P450 3A5 (Homo sapiens, UniProt P20815). Nature of the series: Time-dependent inhibition of CYP3A5 in human liver microsomes. The class given is ADME, Microsome.
Chain of Cytochrome P450 3A5 (P20815 whole entry): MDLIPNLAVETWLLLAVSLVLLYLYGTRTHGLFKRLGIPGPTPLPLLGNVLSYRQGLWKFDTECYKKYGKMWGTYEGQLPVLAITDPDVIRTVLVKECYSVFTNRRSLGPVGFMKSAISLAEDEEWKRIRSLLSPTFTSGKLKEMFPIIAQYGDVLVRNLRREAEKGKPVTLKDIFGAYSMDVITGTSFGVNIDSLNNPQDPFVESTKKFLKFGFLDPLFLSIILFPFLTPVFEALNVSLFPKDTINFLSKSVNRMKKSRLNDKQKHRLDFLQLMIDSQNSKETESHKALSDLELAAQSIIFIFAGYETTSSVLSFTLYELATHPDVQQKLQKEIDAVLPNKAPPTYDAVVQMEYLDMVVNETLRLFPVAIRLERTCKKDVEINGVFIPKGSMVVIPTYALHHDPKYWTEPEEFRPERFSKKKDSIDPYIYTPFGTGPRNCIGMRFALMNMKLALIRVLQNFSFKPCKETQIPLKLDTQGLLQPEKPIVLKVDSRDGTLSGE
The target in series [8] is Prostaglandin G/H synthase 1 (Homo sapiens) (UniProt P23219). Nature of the series: Inhibition of COX1 (unknown origin) at 10 uM relative to control.
Chain of Prostaglandin G/H synthase 1 (Homo sapiens) (P23219 whole entry): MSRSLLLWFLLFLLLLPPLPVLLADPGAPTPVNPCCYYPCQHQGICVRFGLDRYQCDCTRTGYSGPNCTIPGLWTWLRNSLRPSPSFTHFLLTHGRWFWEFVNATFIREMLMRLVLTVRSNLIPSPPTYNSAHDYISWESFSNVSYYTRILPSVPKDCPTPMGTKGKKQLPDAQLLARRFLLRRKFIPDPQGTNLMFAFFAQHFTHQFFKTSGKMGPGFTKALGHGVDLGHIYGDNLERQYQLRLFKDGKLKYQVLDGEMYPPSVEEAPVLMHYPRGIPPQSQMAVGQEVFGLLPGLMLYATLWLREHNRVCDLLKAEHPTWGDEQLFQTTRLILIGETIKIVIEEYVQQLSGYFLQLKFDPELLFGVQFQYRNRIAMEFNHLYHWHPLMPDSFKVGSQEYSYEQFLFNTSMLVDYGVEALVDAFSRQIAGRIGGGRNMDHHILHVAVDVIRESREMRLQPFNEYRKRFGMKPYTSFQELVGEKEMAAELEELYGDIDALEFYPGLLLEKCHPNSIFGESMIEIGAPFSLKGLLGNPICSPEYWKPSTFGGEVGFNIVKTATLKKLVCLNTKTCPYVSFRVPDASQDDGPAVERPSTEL
The test system of series [9] is Plasmodium falciparum. In words: Antimalarial activity against erythrocyte asexual stage Plasmodium falciparum 3D7 0087/N9 infected in humanized SCID mouse model at 1 to 30 mg/kg administered once daily for 6 days measured on day 9. Format: functional, organism-based. As to conditions: dose 1-30 mg/kg, time 6.0 day.
The nature of series [10]: Apparent half life in humanized SCID mouse model at 30 mg/kg, po. Format: ADME, organism-based. As to conditions: in vivo, read-out: t1/2(app) (converted).
Series [11] can be described thus: Toxicity in humanized SCID mouse model infected with erythrocyte asexual stage Plasmodium falciparum 3D7 0087/N9 assessed as drug tolerance at 1 to 30 mg/kg administered once daily for 6 days. The class given is organism-based. As to conditions: in vivo, dose 1-30 mg/kg, time 6 day.
Series [12] has as its system Plasmodium falciparum. Nature of the series: Prevention of re-infection of new erythrocytes in humanized SCID mouse model infected with erythrocyte asexual stage Plasmodium falciparum 3D7 0087/N9 at 1 to 30 mg/kg administered once daily for 6 days. The class given is functional, organism-based. As to conditions: dose 1-30 mg/kg, time 6.0 day.

Chain of Cytochrome P450 2D6 (P10635 whole entry): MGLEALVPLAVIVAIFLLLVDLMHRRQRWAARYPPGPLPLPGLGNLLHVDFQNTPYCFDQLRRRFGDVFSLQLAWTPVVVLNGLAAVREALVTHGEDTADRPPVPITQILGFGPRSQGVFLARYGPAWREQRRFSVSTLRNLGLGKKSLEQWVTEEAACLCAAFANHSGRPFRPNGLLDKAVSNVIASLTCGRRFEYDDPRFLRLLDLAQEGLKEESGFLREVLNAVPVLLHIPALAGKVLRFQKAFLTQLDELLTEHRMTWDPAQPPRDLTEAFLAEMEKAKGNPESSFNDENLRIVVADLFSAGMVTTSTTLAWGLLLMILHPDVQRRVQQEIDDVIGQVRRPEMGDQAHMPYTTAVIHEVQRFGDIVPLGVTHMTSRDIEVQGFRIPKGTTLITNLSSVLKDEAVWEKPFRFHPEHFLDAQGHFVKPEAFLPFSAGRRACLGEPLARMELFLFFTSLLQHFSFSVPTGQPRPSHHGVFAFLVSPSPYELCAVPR
Chain of Cytochrome P450 2C19 (P33261 whole entry): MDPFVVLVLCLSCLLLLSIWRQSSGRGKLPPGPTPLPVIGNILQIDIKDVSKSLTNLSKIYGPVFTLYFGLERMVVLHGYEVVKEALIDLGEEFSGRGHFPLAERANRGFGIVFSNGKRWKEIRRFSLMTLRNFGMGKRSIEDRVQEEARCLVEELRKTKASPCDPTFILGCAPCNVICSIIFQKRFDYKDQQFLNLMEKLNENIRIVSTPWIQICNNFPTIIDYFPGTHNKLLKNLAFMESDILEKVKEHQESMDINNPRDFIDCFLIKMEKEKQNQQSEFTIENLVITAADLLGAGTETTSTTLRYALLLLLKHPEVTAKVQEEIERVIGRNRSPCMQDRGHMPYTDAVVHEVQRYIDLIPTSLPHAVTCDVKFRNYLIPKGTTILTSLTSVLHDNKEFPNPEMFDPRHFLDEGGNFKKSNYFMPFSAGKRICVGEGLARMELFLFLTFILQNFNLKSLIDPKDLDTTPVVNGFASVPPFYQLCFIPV

The IC50 is the concentration needed to halve the response being measured. One may read the CC50 as the concentration that lowers cell viability or growth by half. As usually defined, the inhibition is the drop in the measured response relative to a control, in per cent. Turning to `Cn1nc2c(=O)n(C3CC3)cnc2c1[C@](O)(c1cnc(C(F)(F)F)c(Cl)c1)C(F)(F)F`, the concentration for half-maximal inhibition (IC50) in series [1] is above 30 µM; at Cytochrome P450 1A2 it was above 20 µM; against Cytochrome P450 2D6, above 20 µM. In addition, the CC50 in series [2] is above 20 µM. In addition, in the series on Plasmodium falciparum [3], the Time is around 26 h. Also, in the series with Plasmodium falciparum [4], the “log(activity)” value is recorded as 2.9. In addition, in series [5], the fraction unbound is 0.535. In series [6], the dose excreted was below 1%. Moreover, the permeability entry in [7] is on record as “Permeable”. For the same compound, the TDI entry on Cytochrome P450 2C8, on Cytochrome P450 2C19 and at Cytochrome P450 3A5 was “Not_active” throughout. In [8], the inhibition stood at 50%. The outcome in the series with Plasmodium falciparum [9] was Active. For the same compound, in series [10], the half-life was 7.8 h. In addition, the Activity result in [11] is given as “Non-toxic”. Also, the result in the series on Plasmodium falciparum [12] was inactive.
